Source: patent US8258099B2, “Pin1-modulating compounds and methods of use thereof” (Max-Planck-Gesellschaft zur Foerderung der Wissenschaften …, priority 2004, dated 2012)
Square brackets hold non-standard residues; d marks the D form. Peptide text beside a SMILES is read from it. d(pT) = C[C@H](OP(=O)(O)O)[C@@H](N)C(=O)O; 2Nal = N[C@@H](Cc1ccc2ccccc2c1)C(=O)O; Pip = O=C(O)[C@@H]1CCCCN1

Columns and labels:
hPar14 = hPar14 (Homo sapiens, UniProt Q9Y237); assay: Protease coupled PPIase assay, hPar14; assay type: biochemical; conditions: up to 50 μM
Sequence of hPar14 (Q9Y237 whole entry): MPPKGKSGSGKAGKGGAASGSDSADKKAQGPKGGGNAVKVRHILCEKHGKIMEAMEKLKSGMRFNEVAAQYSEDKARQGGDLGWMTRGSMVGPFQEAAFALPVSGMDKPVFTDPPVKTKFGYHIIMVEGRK
Description: FIG. 6 depicts the influence of peptide 17 on the hPar14 PPIase activity. The apparent first order rate constant kobs determined for the cis to trans isomerization of the arginyl-prolyl peptide bond of the substrate Suc-Ala-Arg-Pro-Phe-NH-Np (SEQ ID NO: 3) was measured using the protease coupled PPIase assay. α-Chymotrypsin was used as isomer specific protease. As control, the nonphosphorylated derivative of peptide 17 was used.
PPIase activities were monitored on a Hewlett-Packard 8452A diode array spectrophotometer according to Fischer et al., 1984 and Zhang et al., 2002. The hPar14 PPIase activity was measured with Suc-Ala-Arg-Pro-Phe-NH-Np (SEQ ID NO: 3) (final concentration 75 μM) as substrate and α-chymotrypsin (final concentration 60 μM) as isomer specific protease. PPIase activity of hCyp 18 and FKBP12 were measured using Suc-Ala-Ala-Pro-Phe-NH-Np (SEQ ID NO: 7) as substrate (final concentration 16 μM) and α-chymotrypsin (final concentration 60 μM) as isomer specific protease. PPIase activity of hPin1 was measured with Ac-Ala-Ala-Ser(PO3H2)-Pro-Arg-NH-Np (SEQ ID NO: 4) (final concentration 10 μM) as substrate and trypsin (final concentration 60 μM) as isomer specific protease. Final concentrations of the PPIases were 1.7 μM for hPar14, 4 nM for hPin1, 7 nM for FKBP12 and 9.7 nM for hCyp18. […] Measurements were monitored at 390 nm. […]

FKBP12 = FKBP12 (Homo sapiens, UniProt P62942); assay: Protease coupled PPIase assay, FKBP12; assay type: biochemical
Sequence of FKBP12 (P62942 whole entry): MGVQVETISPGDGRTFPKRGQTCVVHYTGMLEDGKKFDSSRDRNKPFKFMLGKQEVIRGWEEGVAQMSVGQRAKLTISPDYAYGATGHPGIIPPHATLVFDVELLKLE
Description: PPIase activities were monitored on a Hewlett-Packard 8452A diode array spectrophotometer according to Fischer et al., 1984 and Zhang et al., 2002. The hPar14 PPIase activity was measured with Suc-Ala-Arg-Pro-Phe-NH-Np (SEQ ID NO: 3) (final concentration 75 μM) as substrate and α-chymotrypsin (final concentration 60 μM) as isomer specific protease. PPIase activity of hCyp 18 and FKBP12 were measured using Suc-Ala-Ala-Pro-Phe-NH-Np (SEQ ID NO: 7) as substrate (final concentration 16 μM) and α-chymotrypsin (final concentration 60 μM) as isomer specific protease. PPIase activity of hPin1 was measured with Ac-Ala-Ala-Ser(PO3H2)-Pro-Arg-NH-Np (SEQ ID NO: 4) (final concentration 10 μM) as substrate and trypsin (final concentration 60 μM) as isomer specific protease. […] Measurements were monitored at 390 nm.
Data analysis was performed by single-exponential nonlinear regression using the SigmaPlot Scientific Graphing System Version 5.00 (Jandel Corp.). […] The rate constant k0 was determined in the absence of Pin1. The first order rate constants kenz was calculated from the equation kenz=kobs−k0. IC50 and Ki values were determined by fitting the first order rate constants kenz against the concentration of the inhibitory peptide by nonlinear regression according to Schutkowski et al., 1995 or a model for tight binding inhibitors (Morrison, 1969).

XlPin1 = assay: Protease free PPIase assay, XlPin1; assay type: biochemical, X. laevis
Description: Protein concentrations were determined using the extinction coefficient ε280=21030 M^−1 cm^−1 for hPin1, ε280=6979 M^−1 cm^−1 for the hPin1 PPIase domain, ε280=21030 M^−1 cm^−1 for XlPin1, ε280=8250 M^−1 cm^−1 for hPar14 and ε280=8250 M^−1 cm^−1 for hCyp18. Extinction coefficients were calculated using the program ProtParam Tool at ExPASy (SIB, Switzerland). All measurements were done at 10° C. in 35 mM Hepes buffer (pH 7.8).
The determination of the kinetic constants of the cis/trans isomerization within the protease-free system was performed using fluorescence based measurements (Garcia-Echeverria et al., 1993, Zhang et al., 2002) on a Hitachi F-3010 fluorescence spectrophotometer with H-Abz-Ala-Glu-Pro-Phe-NH-Np (SEQ ID NO: 2) as substrate. The substrate stock solution was 12 mM in anhydrous trifluoroethanol/0.55 M LiCl. […] The excitation wavelength was 320 nm (spectral bandwidth 3 nm) and emission was detected at 420 nm (spectral bandwidth 10 nm).
Data analysis was performed by single-exponential nonlinear regression using the SigmaPlot Scientific Graphing System Version 5.00 (Jandel Corp.). […] The rate constant k0 was determined in the absence of Pin1. The first order rate constants kenz was calculated from the equation kenz=kobs−k0. […]

[1] = Stability against cellular phosphatases and proteases in HeLa cell lysate; assay type: in vitro ADME
Description: FIG. 4 depicts the stability of peptide 17 against cellular phosphatases and proteases. Peptide 17 was incubated for 3 hours in HeLa cell lysate in the absence of phosphatase and protease inhibitors. The mixture was then analyzed by capillary electrophoresis (short dashed line). As controls, the untreated peptide 17 (solid line) and its nonphosphorylated derivative (dotted line) were used. The temperature of the capillary thermostating system was kept at 16° C. Separation buffer was 50 mM sodium phosphate, pH 7.0. Signals were detected at 220 nm.
Peptide 17 was incubated with HeLa cell lysate for 3 h and analyzed with capillary electrophoresis using UV detection at 220 nm on a P/ACE MDQ (Beckman Coulter, Palo Alto, Calif.) system. Fused-silica capillaries (Polymicro Technologies) of 40 cm length at an operation voltage of 20 kV were used. As references, untreated peptide 17 and its nonphosphorylated derivative were used. The samples were hydrodynamically injected with 3.45 kPa for 10 s. 50 mM sodium phosphate buffer (pH 7.0) was used as separation buffer. The system temperature was kept at 16° C.
The stability of peptides 15 and 17 in cytoplasmic extracts from HeLa cells was investigated using MALDI-TOF mass spectrometry and capillary electrophoresis, respectively. In the cytosolic incubation mixture, streptavidin sepharose beads served to isolate peptide 15 fragments after prolonged incubation. […] Therefore, phosphopeptides are useless for evaluating Pin1 functions in vivo unless dephosphorylation can be avoided.

CC(=O)N[C@@H](Cc1ccccc1)C(=O)N[C@@H](C(=O)N1CCCC[C@H]1C(=O)N[C@@H](Cc1ccc2ccccc2c1)C(=O)N[C@@H](CCC(N)=O)C(N)=O)[C@H](C)OP(=O)(O)O [Peptide 17, Ac-Phe-D-Thr(PO3H2)-Pip-Nal-Gln-NH2] (Ac-F[d(pT)][Pip][2Nal]Q-NH2)
inhibition of hPar14 PPIase activity (hPar14): No inhibition
inhibition of FKBP12 (FKBP12): no inhibition
Ki (XlPin1; footnote b) (text of footnote not given), probably XlPin1): 34.4 nM
difference in affinity for recombinant Pin1 of both organisms (XlPin1; hPin1 versus XlPin1): no marked difference
stability against HeLa cell lysate ([1]; 3 hours of incubation, no phosphatase and protease inhibitors, capillary electrophoresis): complete stability
stability in cytosol ([1]; discussion statement (FIG. 4)): sufficiently stable
